Here are results for one compound from patent US12612392B2, “Compound, pharmaceutical compositions containing same, synthesis method therefor and use thereof” (SHENZHEN ZHONGGE BIOLOGICAL TECHNOLOGY CO., LTD., priority 2022, dated 2026).

A value given as a limit tells only on which side of the number the result lay.

Data set [1] is described as follows: Pharmacokinetic evaluation in mice. The class given is in vivo. The method, then: The test compounds were dissolved in vehicles to prepare clear solutions or homogeneous suspensions. […] Blood samples were collected at 0.083 h, 0.25 h, 0.5 h, 1 h, 2 h, 4 h, 8 h, and 24 h after the intravenous administration, and at 0.25 h, 0.5 h, 1 h, 2 h, 4 h, 6 h, 8 h, and 24 h after the oral administration. Plasma samples were centrifuged, and the supernatant was collected to prepare samples, which were then quantitatively analyzed by LC/MS/MS.

A further data set addresses T1, CYP1A2 (Homo sapiens, UniProt P05177).
T1 construct: A phosphate buffer solution of liver microsomes was prepared; from tissue; host or cells: human liver microsomes
T1 sequence (P05177 1-516): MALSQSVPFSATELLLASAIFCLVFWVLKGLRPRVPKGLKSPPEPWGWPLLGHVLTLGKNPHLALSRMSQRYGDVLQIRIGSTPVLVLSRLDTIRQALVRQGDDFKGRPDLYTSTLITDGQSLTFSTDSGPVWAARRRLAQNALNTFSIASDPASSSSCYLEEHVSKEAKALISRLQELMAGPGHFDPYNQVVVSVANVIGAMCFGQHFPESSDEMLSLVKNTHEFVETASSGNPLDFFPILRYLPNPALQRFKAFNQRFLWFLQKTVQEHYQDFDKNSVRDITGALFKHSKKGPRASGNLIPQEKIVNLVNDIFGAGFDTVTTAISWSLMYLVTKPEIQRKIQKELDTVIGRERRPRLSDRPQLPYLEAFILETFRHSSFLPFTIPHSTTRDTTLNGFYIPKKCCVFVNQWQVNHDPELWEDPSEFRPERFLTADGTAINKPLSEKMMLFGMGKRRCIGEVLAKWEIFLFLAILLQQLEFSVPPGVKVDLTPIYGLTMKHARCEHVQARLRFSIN
Nature of the data set: P450 enzyme inhibition, CYP1A2. The class given is in vitro ADME. The note with it: human liver microsome, substrate Phenacetin. The method, then: A phosphate buffer solution of liver microsomes was prepared. 169 μL of the phosphate buffer solution of liver microsomes and 1 μL of working solutions of various concentrations of test compounds or positive control compounds were added to a 96-well plate. The culture plate was placed in a water bath and pre-heated at 37° C. for 15 minutes. After the incubation, 10 μL of substrates were added to the culture plate (1 μL of substrates and 9 μL of the K-Mg buffer solution were added to the plate for CYP3A4-T). The incubation mixture was mixed on a rotating mixer for 10 seconds, and then 20 μL of a 10 mM NADPH solution was added to start the reaction at a final concentration of 1 mM. The experiment was repeated twice. At the predetermined time points listed in Table 4, the reaction was quenched by adding 400 μL of the quenching solution (cold ACN containing 500 nM mephetedrine and 10 nM terfenadine). Centrifugation was performed at 3220 g for 50 minutes at 4° C. 100 μl of the supernatant was transferred to a new plate. The supernatant was diluted with 100 μL of pure water. The mixture was mixed evenly, and the sample was analyzed by UPLC-MS/MS.
(In general: Liver microsomes are vesicles of endoplasmic reticulum, rich in cytochrome P450 enzymes.)

Data set [2] is described as follows: In vitro liver microsome stability. Format: in vitro ADME. The note with it: liver microsomes, NADPH, 37° C. As to the method: A 5 mM MgCl2 100 mM K-Mg buffer solution was pre-heated. 5 μL of a 10 mM compound and a reference stock solution were added to 95 μL of acetonitrile (ACN) to prepare a spiked solution. 1.5 μL of a 500 µM spiked solution and 18.75 μL of 20 mg/mL liver microsomes were added to 479.8 μL of the K-Mg buffer solution. NADPH was dissolved in the K-Mg-buffer solution to prepare an NADPH stock solution ([…]). At different time points (0, 5, 15, 30 and 45 minutes), 30 μL of a 1.5 μM spiked solution containing the microsomes was evenly dropped into an assay plate. The plate was preincubated at 37° C. for 5 minutes. At 0 min, 200 μL of ACN containing IS (internal standard, tolbutamid/terfenadine) was added to the wells, and then 15 μl of the NADPH stock solution (6 mM) was added. For other time points, 15 μL of the NADPH stock solution (6 mM) was added to the wells to initiate the reaction and start the timing. At 5, 15, 30 and 45 min, the reaction was stopped by adding 200 μL of ACN containing IS to the corresponding wells of the plate. After quenching, the plate was shaken at 600 rpm for 10 minutes and then centrifuged at 4000 rpm for 50 minutes. 80 μL of the supernatant from each well was transferred to a 96-well sample plate containing 160 μL of pure water for UPLC/MS/MS analysis.

Consider `O=C(COc1ccc(Cl)c(F)c1)N[C@H]1CC[C@H](c2nnc(N3CC(OC(F)(F)F)C3)o2)CC1` [Compound 6], for which the “pharmacokinetic properties in mice” value in data set [1] (Cl, T1/2, Cmax, AUC, F) is “excellent pharmacokinetic properties in mice”. Besides, in data set [1] (plasma, mouse IV (1 mg/kg)), the total exposure AUC(0-inf) (as a rule, total exposure, with the tail of the curve extrapolated) is 11.4 µg·h/mL; the C0 turned out to be 1240 ng/mL; the clearance – broadly, the rate of elimination divided by the concentration – was 1.46 mL/min/kg; the half-life – broadly, the time needed for the level to fall by half in the phase considered – was 6.35 h. Moreover, the Vd in data set [1] (plasma, mouse IV (1 mg/kg), read-out: Vss) came out at 0.707 L/kg. Also, in data set [1] (plasma, mouse PO (30 mg/kg)), the AUC(0-inf) stood at 516 µg·h/mL, the peak level (Cmax) was 48000 ng/mL, the Tmax (commonly the time at which the peak concentration occurs) turned out to be 3.33 h and the half-life is 3.11 h. Moreover, the bioavailability in data set [1] (plasma, mouse PO (30 mg/kg) vs IV (1 mg/kg)) was determined as 161%. Also, on CYP1A2, the IC50 (as a rule, the concentration that gives 50% inhibition) was over 10 µM. Also, the half-life at 1 µM in data set [2] is over 1.5 h.
